Experimental data published in paper PMC7503981, “Plant Nitrilase Homologues in Fungi: Phylogenetic and Functional Analysis with Focus on Nitrilases in Trametes versicolor and Agaricus bisporus” (Molecules, 2020).

Columns and labels:
NitTv1 = target: T1, NitTv1 (Trametes versicolor, UniProt P9WEU6); experiment: spectrophotometric ammonia assay; […] substrate; format: biochemical; details: read-out: Substrate β-CA / Vmax [U mg^-1 rotein)] KM (mM) / NLase Activity ^2; NLase (Asp + ammonia forming) activity; no asparaginase added for NLase activity; 50 mM Tris/HCl, 150 mM NaCl, pH 8.0, 30 °C
T1 construct: gene nit; catalytic tetrad E46, K133, E140, C178
T1 sequence (P9WEU6 whole entry): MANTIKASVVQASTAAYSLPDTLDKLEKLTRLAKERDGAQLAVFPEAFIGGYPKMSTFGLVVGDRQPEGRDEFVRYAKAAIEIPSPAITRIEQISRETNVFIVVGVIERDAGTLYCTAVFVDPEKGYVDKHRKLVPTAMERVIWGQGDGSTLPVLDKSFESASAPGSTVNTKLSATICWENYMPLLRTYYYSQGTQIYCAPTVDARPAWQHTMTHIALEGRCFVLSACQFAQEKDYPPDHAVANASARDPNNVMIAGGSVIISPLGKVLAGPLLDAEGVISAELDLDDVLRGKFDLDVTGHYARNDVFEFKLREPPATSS

NitAb = system: T2, NitAb; experiment: spectrophotometric ammonia assay; […] substrate; format: biochemical, Agaricus bisporus; details: NLase (Asp + ammonia forming) activity; no asparaginase added for NLase activity; 50 mM Tris/HCl, 150 mM NaCl, pH 8.0, 30 °C; read-out: Substrate β-CA / Vmax [U mg^-1 rotein)] KM (mM) / NLase Activity ^2
T2 construct: catalytic tetrad E45, K157, E164, C195

**Q.** For `N#CC[C@H](N)C(=O)O` [β-CA, β-cyano-L-alanine], which Km (NitTv1) is on record?
**A.** Its Km is 7.72 ± 1.82 mM.

**Q.** What about the Km (NitAb) of the same molecule?
**A.** The Km was 7.38 ± 1.4 mM.
